Data reported in patent publication US20250312341A1, “METHODS FOR TREATING PATIENTS WITH LOCALLY ADVANCED AND/OR METASTATIC SOLID TUMORS USING A DGK ZETA INHIBITOR” (ASTELLAS PHARMA INC., priority 2022, published 2025).

Legend:
[1] = 4-week repeated dose toxicity study in rats; assay type: in vivo
Procedure: (§1) Compound I has been tested in numerous preclinical studies. Data from the 4-week repeated dose toxicity study in rats and 4-week repeated dose toxicity study in cynomolgus monkeys determined STD10 in rats to be 30 mg/kg/day and the HNSTD in cynomolgus monkeys to be 3 mg/kg/day. Human equivalent doses based on body surface area conversion (conversion factors: 0.16 for rat, 0.32 for monkey) of the STD10 in rats and the HNSTD in cynomolgus monkeys are 4.8 mg/kg and 0.96 mg/kg, respectively. For a person of 60 kg body weight, one tenth of the rat STD10 is 28.8 mg (4.8 mg/kg× 1/10×60 kg) and one sixth of the HNSTD is 9.6 mg (0.96 mg/kg×⅙×60 kg). Cynomolgus monkey is the more sensitive species. Therefore, based on cynomolgus monkey HNSTD, the starting dose in human is judged to be 9.6 mg/participant once daily (QD) given orally (actual starting dose will be 10 mg based on 10 mg tablet strength).

[2] = 4-week repeated dose toxicity study in cynomolgus monkeys; assay type: in vivo
Procedure: as §1

DGKζ = DGKζ (Homo sapiens, UniProt Q13574); experiment: Nonclinical pharmacology: inhibition of DGKζ activity; assay type: biochemical; conditions: nonclinical pharmacology studies
T cell = experiment: Nonclinical pharmacology: DAG downstream pathway and T cell activation upon TCR stimulation; assay type: cell-based
[3] = test system: syngeneic mouse models (inflamed tumor and TIL-poor tumor models); experiment: Antitumor efficacy in syngeneic mouse tumor models; assay type: in vivo
[4] = test system: peripheral blood mononuclear cells (PBMCs); experiment: Preclinical in vitro CD69 expression by PBMCs after TCR mediated stimulation; assay type: cell-based; conditions: after the TCR mediated stimulation
Excerpt: The whole blood samples will be collected from the treated patients to evaluate pharmacodynamics effects of the Compound I. The preclinical in vitro studies have identified CD69 expression by peripheral blood mononuclear cells (PBMCs) as the best pharmacodynamic biomarker candidate. The CD69 is early activation biomarker expressed by many immune cells including T-cells. […] To evaluate the pharmacodynamics effect of Compound I, the PBMCs will be isolated and stimulated in vitro by CD3/CD28; the expression of the CD69 will be measured by flow cytometry.

[5] = Nonclinical safety assessments; assay type: in vivo

DGKζ, sequence (Q13574 whole entry, species assumed): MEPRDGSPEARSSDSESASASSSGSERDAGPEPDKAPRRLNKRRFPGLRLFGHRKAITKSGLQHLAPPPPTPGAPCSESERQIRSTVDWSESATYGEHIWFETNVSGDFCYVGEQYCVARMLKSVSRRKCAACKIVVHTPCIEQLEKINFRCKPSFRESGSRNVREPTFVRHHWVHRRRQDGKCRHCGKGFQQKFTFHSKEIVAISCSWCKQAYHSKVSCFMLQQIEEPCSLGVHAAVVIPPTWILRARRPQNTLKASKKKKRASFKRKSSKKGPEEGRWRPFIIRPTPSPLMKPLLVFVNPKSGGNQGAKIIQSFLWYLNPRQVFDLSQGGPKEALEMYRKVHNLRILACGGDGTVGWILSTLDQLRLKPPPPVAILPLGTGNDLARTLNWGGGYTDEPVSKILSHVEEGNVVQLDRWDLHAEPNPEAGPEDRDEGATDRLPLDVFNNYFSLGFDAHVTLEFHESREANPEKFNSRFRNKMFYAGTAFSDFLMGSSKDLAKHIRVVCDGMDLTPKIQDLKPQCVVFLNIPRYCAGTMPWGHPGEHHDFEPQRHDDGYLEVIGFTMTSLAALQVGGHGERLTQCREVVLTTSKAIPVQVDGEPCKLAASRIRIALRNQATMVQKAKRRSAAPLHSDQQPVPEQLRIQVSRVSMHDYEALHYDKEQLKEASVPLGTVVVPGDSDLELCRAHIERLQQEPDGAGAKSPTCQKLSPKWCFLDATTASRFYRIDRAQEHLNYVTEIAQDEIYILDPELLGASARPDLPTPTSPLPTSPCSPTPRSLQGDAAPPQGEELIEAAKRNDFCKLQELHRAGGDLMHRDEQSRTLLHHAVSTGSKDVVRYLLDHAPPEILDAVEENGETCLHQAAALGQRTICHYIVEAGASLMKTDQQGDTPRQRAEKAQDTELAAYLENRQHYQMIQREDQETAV

In the case of CNC[C@H]1CN(c2c(NC(=O)c3ccn(-c4ccnnc4)n3)ccc(Oc3ccccc3F)c2C(F)(F)F)CCN1C [Compound I, N-[4-(2-Fluorophenoxy)-2-{(3S)-4-methyl-3-[(methylamino)methyl]piperazin-1-yl}-3-(trifluoromethyl)phenyl]-1-(pyridazin-4-yl)-1H-pyrazole-3-carboxamide], the “Human equivalent dose of the STD10 in rats” value ([1]; body surface area conversion, factor 0.16 for rat) is reported as 4.8 mg/kg, the STD10 ([1]; rats, 4-week repeated dose) is reported as 30 mg/kg/day and the “Human equivalent dose of the HNSTD in cynomolgus monkeys” value ([2]; body surface area conversion, factor 0.32 for monkey) is reported as 0.96 mg/kg. The HNSTD ([2]; cynomolgus monkeys, 4-week repeated dose) was 3 mg/kg/day, the DGKζ activity (DGKζ) was “inhibits DGKζ activity” and the “activation of DAG downstream pathways and T cell activation” value (T cell) was “enhances activation of DAG downstream pathways as well as T cell activation”. For the same molecule, the Anti-tumor efficacy ([3]; anti-PD-1 poor-responsive syngeneic mouse models as well as responsive models) was “demonstrated”, the antitumor efficacy ([3]; oral administration, inflamed tumor and TIL-poor tumor models) was “demonstrated antitumor efficacy” and the “expression of CD69” value [4] was “induces increased expression of CD69”. The nonclinical safety findings [5] was “risk of effect on body weight, gastrointestinal tract, electrocardiogram (ECG) parameters, hemodynamic and body temperature, lymphohematopoietic system and reproductive toxicity”.
